Measurements: publication PMC3261128, “Modulation of phosphofructokinase (PFK) from Setaria cervi, a bovine filarial parasite, by different effectors and its interaction with some antifilarials” (2011)

Assays:
Assay type in all cases: biochemical
[1] = system: T1, Phosphofructokinase (PFK); conditions: 5000 µM
T1 construct: native enzyme purified from adult female worms

[2] = target: T1, Phosphofructokinase (PFK); assay: coupled enzyme assay (NADH oxidation), Ki and Hill plot
[3] = target: T2, rat liver PFK (phosphofructokinase) (Rattus norvegicus, UniProt P30835); assay: as above
T2 construct: gene Pfkl; native enzyme partially purified from rat liver
T2 sequence (P30835 2-780): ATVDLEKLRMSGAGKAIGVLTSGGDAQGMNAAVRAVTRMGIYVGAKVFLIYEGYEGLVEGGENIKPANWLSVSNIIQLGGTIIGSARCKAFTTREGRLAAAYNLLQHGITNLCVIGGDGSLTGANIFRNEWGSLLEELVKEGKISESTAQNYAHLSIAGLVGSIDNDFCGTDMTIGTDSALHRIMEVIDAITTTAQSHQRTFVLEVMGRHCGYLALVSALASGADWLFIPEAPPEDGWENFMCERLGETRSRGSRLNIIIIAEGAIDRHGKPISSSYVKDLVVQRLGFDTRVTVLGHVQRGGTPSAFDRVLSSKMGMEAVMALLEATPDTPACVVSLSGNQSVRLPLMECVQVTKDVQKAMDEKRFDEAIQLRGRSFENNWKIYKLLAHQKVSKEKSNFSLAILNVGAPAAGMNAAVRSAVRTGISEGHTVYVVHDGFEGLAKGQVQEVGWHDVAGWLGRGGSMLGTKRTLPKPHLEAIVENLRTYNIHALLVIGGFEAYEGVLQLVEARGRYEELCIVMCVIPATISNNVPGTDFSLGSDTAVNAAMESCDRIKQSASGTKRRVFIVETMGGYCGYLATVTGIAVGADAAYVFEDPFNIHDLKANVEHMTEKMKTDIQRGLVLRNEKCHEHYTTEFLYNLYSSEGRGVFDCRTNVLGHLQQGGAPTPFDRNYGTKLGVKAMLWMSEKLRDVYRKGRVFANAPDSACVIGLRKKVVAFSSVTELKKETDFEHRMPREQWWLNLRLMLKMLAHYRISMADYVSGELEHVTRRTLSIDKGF
From the text: coupled enzyme assay (NADH oxidation), Ki and Hill plot on rat liver PFK (phosphofructokinase) | inhibition of rat liver PFK was of the non-competitive type (Figure 5A) and the Ki value of suramin

% Residual Activity / 5 [1]	SMILES	Ki [2]	Ki [3]
45	c1ccc([C@H]2CN3CCSC3=N2)cc1 [Levamisole]		
	Cc1ccc(C(=O)Nc2ccc(S(=O)(=O)O)c3cc(S(=O)(=O)O)cc(S(=O)(=O)O)c23)cc1NC(=O)c1cccc(NC(=O)Nc2cccc(C(=O)Nc3cc(C(=O)Nc4ccc(S(=O)(=O)O)c5cc(S(=O)(=O)O)cc(S(=O)(=O)O)c45)ccc3C)c2)c1 [suramin]	1.1 ± 0.1 nM	40 ± 1 nM
